Structures can show the parent of a compound that is named as a salt.
biological target: KRas G12D (Homo sapiens, UniProt P01116, G12D); experiment: KRas G12D Binding Assay (TR-FRET displacement of labeled tracer); parameters: corresponding to amino acids 1:169, produced at Array BioPharma Inc; biotin (biotinylated); settings: TR-FRET displacement of Cy5 labelled tracer, Biotinylated GDP-loaded KRAS G12D (amino acids 1:169), 60 minute incubation at 22° C.
Procedure: This Example illustrates that exemplary compounds of the present invention bind to KRas G12D and are capable of displacing a labeled tracer ligand occupying the KRas G12D binding site. The ability of a compound to bind to KRAS G12D was measured using a TR-FRET displacement assay. Biotinylated GDP-loaded recombinant human KRAS G12D (corresponding to amino acids 1:169, produced at Array BioPharma Inc.) was incubated with a custom-made Cy5 labelled tracer, europium labelled streptavidin and compound (2% DMSO final) in buffer (50 mM HEPES [pH 7.5], 5 mM MgCl2, 0.005% Tween-20 & 1 mM DTT). After a 60 minute incubation at 22° C., the reaction was measured using a PerkinElmer EnVision multimode plate reader via TR-FRET dual wavelength detection, and the percent of control (POC) calculated using a ratiometric emission factor. […] The POC values were fit to a 4-parameter logistic curve and the IC50 value was determined as the concentration where the curve crosses 50 POC.

KRas G12D, sequence (P01116 1-169 isoform P01116-2 G12D): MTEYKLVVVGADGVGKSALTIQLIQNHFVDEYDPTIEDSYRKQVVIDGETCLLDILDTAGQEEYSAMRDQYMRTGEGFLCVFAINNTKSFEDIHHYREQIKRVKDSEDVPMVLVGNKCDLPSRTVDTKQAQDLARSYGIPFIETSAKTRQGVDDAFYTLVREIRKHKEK

Row | IC50 [nM] | Structure (SMILES)
1 | 857 | CN(C)C1(CNc2nc(OCCc3nccn3C)nc3c(F)c(-c4cc(O)cc5ccccc45)ncc23)CCC1 [Example 31]
2 | 381 | CN1CCC[C@@H]1COc1nc(NCC2(N(C)C)CCC2)c2cnc(-c3cc(O)cc4ccccc34)c(F)c2n1 [Example 32]
3 | 0.9 | CCc1cccc2cc(O)cc(-c3ncc4c(NCC5(N(C)C)CCC5)nc(OC[C@@]56CCCN5C[C@H](F)C6)nc4c3F)c12 [Example 33, 4-(4-(((1-(dimethylamino)cyclobutyl)methyl)amino)-8-fluoro-2-(((2R,7aS)-2-fluorotetrahydro-1H-pyrrolizin-7a(5H)-yl)methoxy)pyrido[4,3-d]pyrimidin-7-yl)-5-ethylnaphthalen-2-ol dihydrochloride]
4 | 1.1 | CCc1cccc2cc(O)cc(-c3ncc4c(NCC5(N(C)C)CCCC5)nc(OC[C@@]56CCCN5C[C@H](F)C6)nc4c3F)c12 [Example 34, 4-(4-(((1-(dimethylamino)cyclopentyl)methyl)amino)-8-fluoro-2-(((2R,7aS)-2-fluorotetrahydro-1H-pyrrolizin-7a(5H)-yl)methoxy)pyrido[4,3-d]pyrimidin-7-yl)-5-ethylnaphthalen-2-ol dihydrochloride]
5 | 30.4 | CCc1c(F)ccc2cccc(-c3ncc4c(NCC5(N(C)C)CCC5)nc(OCC56CCCN5CCC6)nc4c3F)c12 [Example 35, N-((1-(dimethylamino)cyclobutyl)methyl)-7-(8-ethyl-7-fluoronaphthalen-1-yl)-8-fluoro-2-((tetrahydro-1H-pyrrolizin-7a(5H)-yl)methoxy)pyrido[4,3-d]pyrimidin-4-amine bis(2,2,2-trifluoroacetate)]
6 | 26.1 | CCc1cccc2cc(O)cc(-c3ncc4c(N(C)CC5(N(C)C)CCC5)nc(OC[C@@]56CCCN5C[C@H](F)C6)nc4c3F)c12 [Example 37, 4-(4-(((1-(dimethylamino)cyclobutyl)methyl)(methyl)amino)-8-fluoro-2-(((2R,7aS)-2-fluorotetrahydro-1H-pyrrolizin-7a(5H)-yl)methoxy)pyrido[4,3-d]pyrimidin-7-yl)-5-ethylnaphthalen-2-ol dihydrochloride]
7 | 389 | Oc1cc(-c2ncc3c(NCC4(O)CNC4)nc(OC[C@@]45CCCN4C[C@H](F)C5)nc3c2F)c2ccccc2c1 [Example 38, 3-(((8-fluoro-2-(((2R,7aS)-2-fluorotetrahydro-1H-pyrrolizin-7a(5H)-yl)methoxy)-7-(3-hydroxynaphthalen-1-yl)pyrido[4,3-d]pyrimidin-4-yl)amino)methyl)azetidin-3-ol bis(2,2,2-trifluoroacetate)]
8 | 5150 | Oc1cc(-c2ncc3c(NC[C@]45C[C@H]4CCN5)nc(OC[C@@]45CCCN4C[C@H](F)C5)nc3c2F)c2ccccc2c1 [Example 40, 4-(4-((((1S,5R)-2-azabicyclo[3.1.0]hexan-1-yl)methyl)amino)-8-fluoro-2-(((2R,7aS)-2-fluorotetrahydro-1H-pyrrolizin-7a(5H)-yl)methoxy)pyrido[4,3-d]pyrimidin-7-yl)naphthalen-2-ol bis(2,2,2-trifluoroacetate)]
9 | 684 | CN(C)C1(CNc2nc(OC[C@@]34CCCN3C[C@H](F)C4)nc3c(F)c(-c4cc(O)cc5ccccc45)ncc23)CCOCC1 [Example 41, 4-(4-(((4-(dimethylamino)tetrahydro-2H-pyran-4-yl)methyl)amino)-8-fluoro-2-(((2R,7aS)-2-fluorotetrahydro-1H-pyrrolizin-7a(5H)-yl)methoxy)pyrido[4,3-d]pyrimidin-7-yl)naphthalen-2-ol bis(2,2,2-trifluoroacetate)]
10 | 211 | CN(C)C(C)(C)CNc1nc(OC[C@]23CCCN2C[C@@H](F)C3)nc2c(F)c(-c3cc(O)cc4ccccc34)ncc12 [Example 42, 4-(4-((2-(dimethylamino)-2-methylpropyl)amino)-8-fluoro-2-(((2S,7aR)-2-fluorotetrahydro-1H-pyrrolizin-7a(5H)-yl)methoxy)pyrido[4,3-d]pyrimidin-7-yl)naphthalen-2-ol bis(2,2,2-trifluoroacetate)]

Source: US12655160B2, “KRAS G12D inhibitors” (Mirati Therapeutics, Inc., priority 2020, dated 2026)
